From ChEMBL document CHEMBL3797178, “Synthesis, antimycobacterial and antibacterial activity of 1-(6-amino-3,5-difluoropyridin-2-yl)fluoroquinolone derivatives containing an oxime functional moiety” (2016)
≈ marks a conversion by molar mass, not a printed value.

How the values were obtained:
Type in all cases: functional
[1] = system: Klebsiella pneumoniae; assay: Antibacterial activity against extended-spectrum beta-lactamase-producing Klebsiella pneumoniae 14-19 after 18 to 24 hrs by CLSI M100-S11 method
[2] = system: Pseudomonas aeruginosa; assay: Antibacterial activity against Pseudomonas aeruginosa ATCC 27853 after 18 to 24 hrs by CLSI M100-S11 method
[3] = system: Pseudomonas aeruginosa; assay: Antibacterial activity against Pseudomonas aeruginosa 14-9 after 18 to 24 hrs by CLSI M100-S11 method
[4] = system: Escherichia coli; assay: Antibacterial activity against Escherichia coli 14-1 after 18 to 24 hrs by CLSI M100-S11 method
[5] = system: Enterococcus faecalis; assay: Antibacterial activity against Enterococcus faecalis 14-1 after 18 to 24 hrs by CLSI M100-S11 method
[6] = system: Staphylococcus epidermidis; assay: Antibacterial activity against methicillin-resistant Staphylococcus epidermidis 14-22 after 18 to 24 hrs by CLSI M100-S11 method
[7] = system: Klebsiella pneumoniae; assay: Antibacterial activity against Klebsiella pneumoniae 14-1 after 18 to 24 hrs by CLSI M100-S11 method
[8] = system: Escherichia coli; assay: Antibacterial activity against extended-spectrum beta-lactamase-producing Escherichia coli 14-1 after 18 to 24 hrs by CLSI M100-S11 method
[9] = system: Enterococcus faecalis; assay: Antibacterial activity against Enterococcus faecalis 14-2 after 18 to 24 hrs by CLSI M100-S11 method
[10] = system: Staphylococcus aureus; assay: Antibacterial activity against methicillin-sensitive Staphylococcus aureus 14-4 after 18 to 24 hrs by CLSI M100-S11 method
[11] = system: Staphylococcus epidermidis; assay: Antibacterial activity against methicillin-sensitive Staphylococcus epidermidis 14-2 after 18 to 24 hrs by CLSI M100-S11 method
[12] = system: Enterococcus faecium; assay: Antibacterial activity against Enterococcus faecium 14-2 after 18 to 24 hrs by CLSI M100-S11 method
[13] = system: Streptococcus pneumoniae; assay: Antibacterial activity against Streptococcus pneumoniae ATCC 19615 after 18 to 24 hrs by CLSI M100-S11 method
[14] = system: Klebsiella pneumoniae; assay: Antibacterial activity against extended-spectrum beta-lactamase-producing Klebsiella pneumoniae 14-18 after 18 to 24 hrs by CLSI M100-S11 method
[15] = system: Staphylococcus aureus; assay: Antibacterial activity against methicillin-resistant Staphylococcus aureus 14-4 after 18 to 24 hrs by CLSI M100-S11 method
[16] = system: Klebsiella pneumoniae; assay: Antibacterial activity against Klebsiella pneumoniae 14-3 after 18 to 24 hrs by CLSI M100-S11 method
[17] = system: Pseudomonas aeruginosa; assay: Antibacterial activity against Pseudomonas aeruginosa 14-14 after 18 to 24 hrs by CLSI M100-S11 method
[18] = system: Escherichia coli; assay: Antibacterial activity against Escherichia coli 14-2 after 18 to 24 hrs by CLSI M100-S11 method
[19] = system: Pseudomonas aeruginosa; assay: Antibacterial activity against Pseudomonas aeruginosa 14-19 after 18 to 24 hrs by CLSI M100-S11 method
[20] = system: Staphylococcus epidermidis; assay: Antibacterial activity against methicillin-sensitive Staphylococcus epidermidis 14-4 after 18 to 24 hrs by CLSI M100-S11 method
[21] = system: Staphylococcus epidermidis; assay: Antibacterial activity against methicillin-sensitive Staphylococcus epidermidis 14-6 after 18 to 24 hrs by CLSI M100-S11 method
[22] = system: Klebsiella pneumoniae; assay: Antibacterial activity against Klebsiella pneumoniae 14-2 after 18 to 24 hrs by CLSI M100-S11 method
[23] = system: Klebsiella pneumoniae; assay: Antibacterial activity against extended-spectrum beta-lactamase-producing Klebsiella pneumoniae 14-17 after 18 to 24 hrs by CLSI M100-S11 method
[24] = system: Enterococcus faecalis; assay: Antibacterial activity against Enterococcus faecalis 14-3 after 18 to 24 hrs by CLSI M100-S11 method
[25] = system: Escherichia coli; assay: Antibacterial activity against Escherichia coli ATCC 25922 after 18 to 24 hrs by CLSI M100-S11 method
[26] = system: Mycobacterium tuberculosis; assay: Antimycobacterial activity against Mycobacterium tuberculosis H37Rv ATCC 27294 after 3 days by microplate Alamar Blue assay; details: H37Rv ATCC 27294, 72 h
[27] = system: Staphylococcus epidermidis; assay: Antibacterial activity against methicillin-resistant Staphylococcus epidermidis 14-39 after 18 to 24 hrs by CLSI M100-S11 method
[28] = system: Staphylococcus epidermidis; assay: Antibacterial activity against methicillin-resistant Staphylococcus epidermidis 14-37 after 18 to 24 hrs by CLSI M100-S11 method
[29] = system: Staphylococcus aureus; assay: Antibacterial activity against methicillin-sensitive Staphylococcus aureus 14-3 after 18 to 24 hrs by CLSI M100-S11 method
[30] = system: Enterococcus faecium; assay: Antibacterial activity against Enterococcus faecium 14-1 after 18 to 24 hrs by CLSI M100-S11 method
[31] = system: Klebsiella pneumoniae; assay: Antibacterial activity against Klebsiella pneumoniae 14-4 after 18 to 24 hrs by CLSI M100-S11 method
[32] = system: Staphylococcus aureus; assay: Antibacterial activity against methicillin-resistant Staphylococcus aureus 14-5 after 18 to 24 hrs by CLSI M100-S11 method
[33] = system: Pseudomonas aeruginosa; assay: Antibacterial activity against Pseudomonas aeruginosa 14-16 after 18 to 24 hrs by CLSI M100-S11 method
[34] = system: Staphylococcus aureus; assay: Antibacterial activity against Staphylococcus aureus CMCC 26003 after 18 to 24 hrs by CLSI M100-S11 method
[35] = system: Escherichia coli; assay: Antibacterial activity against extended-spectrum beta-lactamase-producing Escherichia coli 14-2 after 18 to 24 hrs by CLSI M100-S11 method
[36] = system: Pseudomonas aeruginosa; assay: Antibacterial activity against Pseudomonas aeruginosa 14-15 after 18 to 24 hrs by CLSI M100-S11 method
[37] = system: Staphylococcus aureus; assay: Antibacterial activity against methicillin-sensitive Staphylococcus aureus 14-2 after 18 to 24 hrs by CLSI M100-S11 method

SMILES | MIC [1] [µg/mL] | MIC [2] [µg/mL] | MIC [3] [µg/mL] | MIC [4] [µg/mL] | MIC [5] [µg/mL] | MIC [6] [µg/mL] | MIC [7] [µg/mL] | MIC [8] [µg/mL] | MIC [9] [µg/mL] | MIC [10] [µg/mL] | MIC [11] [µg/mL] | MIC [12] [µg/mL] | MIC [13] [µg/mL] | MIC [14] [µg/mL] | MIC [15] [µg/mL] | MIC [16] [µg/mL] | MIC [17] [µg/mL] | MIC [18] [µg/mL] | MIC [19] [µg/mL] | MIC [20] [µg/mL] | further results
NC[C@@H]1/C(=N/OCc2ccccc2)CN1c1nc2c(cc1F)c(=O)c(C(=O)O)cn2-c1nc(N)c(F)cc1F | > 128 | 128 (≈ 237 µM) | 128 (≈ 237 µM) | > 128 | > 128 | > 128 | > 128 | 128 (≈ 237 µM) | > 128 | 4 (≈ 7.41 µM) | > 128 | 32 (≈ 59.3 µM) | 64 (≈ 119 µM) | 128 (≈ 237 µM) | > 128 | > 128 | 128 (≈ 237 µM) | > 128 | 128 (≈ 237 µM) | > 128 | MIC [21]: > 128 µg/mL; MIC [22]: > 128 µg/mL; MIC [23]: > 128 µg/mL; MIC [24]: > 128 µg/mL; MIC [25]: 8 µg/mL (≈ 14.8 µM); MIC [26]: > 32 µg/mL; MIC [27]: > 133 µg/mL; MIC [28]: > 128 µg/mL; MIC [29]: 8 µg/mL (≈ 14.8 µM); MIC [30]: > 128 µg/mL; MIC [31]: > 128 µg/mL; MIC [32]: > 128 µg/mL; MIC [33]: 128 µg/mL (≈ 237 µM); MIC [34]: 4 µg/mL (≈ 7.41 µM); MIC [35]: > 128 µg/mL; MIC [36]: 128 µg/mL (≈ 237 µM); MIC [37]: 4 µg/mL (≈ 7.41 µM)
CCO/N=C1\CN(c2nc3c(cc2F)c(=O)c(C(=O)O)cn3-c2nc(N)c(F)cc2F)[C@@H]1CN | > 128 | 128 (≈ 268 µM) | 128 (≈ 268 µM) | > 128 | > 128 | > 128 | > 128 | > 128 | > 128 | 32 (≈ 67 µM) | > 128 | 128 (≈ 268 µM) | 64 (≈ 134 µM) | > 128 | > 128 | > 128 | 128 (≈ 268 µM) | > 128 | 128 (≈ 268 µM) | > 128 | MIC [21]: > 128 µg/mL; MIC [22]: > 128 µg/mL; MIC [23]: > 128 µg/mL; MIC [24]: > 128 µg/mL; MIC [25]: 16 µg/mL (≈ 33.5 µM); MIC [26]: > 32 µg/mL; MIC [27]: > 132 µg/mL; MIC [28]: > 128 µg/mL; MIC [29]: 32 µg/mL (≈ 67 µM); MIC [30]: > 128 µg/mL; MIC [31]: > 128 µg/mL; MIC [32]: > 128 µg/mL; MIC [33]: 128 µg/mL (≈ 268 µM); MIC [34]: 16 µg/mL (≈ 33.5 µM); MIC [35]: > 128 µg/mL; MIC [36]: 128 µg/mL (≈ 268 µM); MIC [37]: 32 µg/mL (≈ 67 µM)
